The target in one experiment is T1, 5-HT3 receptor (Bos taurus, UniProt F1N4Y2).
T1 construct: from tissue; host or cells: calf brain, entorhinal cortex and hippocampus; detergent (OPG) solubilised and purified on 5-HT-agarose
T1 sequence (F1N4Y2 29-488): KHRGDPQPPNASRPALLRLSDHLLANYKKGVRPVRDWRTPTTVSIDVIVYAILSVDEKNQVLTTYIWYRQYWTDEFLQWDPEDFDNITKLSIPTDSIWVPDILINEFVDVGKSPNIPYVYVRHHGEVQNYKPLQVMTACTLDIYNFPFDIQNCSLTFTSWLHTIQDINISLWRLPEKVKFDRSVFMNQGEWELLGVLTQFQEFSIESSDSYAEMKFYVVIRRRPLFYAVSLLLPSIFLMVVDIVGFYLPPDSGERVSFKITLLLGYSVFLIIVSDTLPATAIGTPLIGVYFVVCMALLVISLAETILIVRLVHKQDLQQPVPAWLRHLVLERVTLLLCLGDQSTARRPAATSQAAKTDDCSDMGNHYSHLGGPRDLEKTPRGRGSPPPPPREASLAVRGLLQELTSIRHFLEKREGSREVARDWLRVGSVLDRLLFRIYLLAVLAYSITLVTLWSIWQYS
As to the kind of experiment: Current responses of gold-supported lipid bilayer sensor with incorporated 5-HT3 receptor during stimulation by agonists, without or with antagonist. The experiment is classed as biochemical, calf. How it is done:
A 1 mm^2 gold electrode was cleaned and inserted into the electrochemical cell as described in Example 5. First, 100 μl of the thiolipid/OPG solution (0.7 mM/48 mM in 0.1 M KCl) was added and the adsorption process followed as described in Example 6. After approximately 2 minutes, the solution was completely replaced. The sample was washed several times with 55 mM OGP in 0.1 M KCl.
A receptor-containing solution was prepared as follows: 2 mg (2.9 μmol) of DMPC, 2 mg (2.6 μmol) of POPC (i.e. an approximately 1:1 molar ratio of DMPC: POPC) and 2 mg ([…]) of OPG were ultrasonicated in 1 ml of 0.1 M KCl, until the solution became clear. This solution was mixed with 15 μg of the 5-HT3 receptor (1 mg/ml, in 40 mM OPG and complex buffer "A" as used in Example 4), 100 μl of the receptor-containing solution was placed in the cell. After about 2 minutes, the cell solution was diluted stepwise by the addition of small portions of 0.1 M KCl. Finally, the solution was completely replaced by 0.1 M KCl. The resulting layer was used for experiments within 5 hours at most, then being removed by washing with 55 mM OGP in 0.1 M KCl and formed again using the ice-cooled receptor solution.
50 μl portions of 5-HT solution "B" (20 μM 5-HT in 0.1 M KCl) were added successively to the layer with the incorporated receptor (still connected to the cell containing 500 μl of 0.1 M KCl). An interval of about 50 seconds was left between additions (the capacitive and the faradaic current reaching a constant value).
The construction of the receptor-containing system was performed as described above. Again, 500 μl of 0.1 M KCl was placed in the measurement cell but for stimulation, a solution "C" of 20 μM 1-phenylbiguanide, another agonist, in 0.1 M KCl was used.
The supported lipid bilayer, containing the 5-HT3 receptor, was formed as described in (ii). […] After each addition, the values of the capacitive and the faradaic currents were allowed to stabilize.
A large (geometrical area about 1 cm^2) AgCl-coated Ag wire served as the counter/reference electrode and was fixed at a defined distance from the working electrode. The impedance measurements were made using a two-channel lock-in amplifier (EG&G model 5206) at v=120 Hz, applying Uo =17.5 mV RMS to the electrochemical cell. The real and imaginary parts of the impedance were obtained from the currents in phase (faradaic component Ifarad) and 90° out of phase (capacitive component Icap) with the applied voltage, respectively. These currents were measured on a 1 k.OMEGA. resistor in series with the electrodes.
(§1) The impedance and capacitance of the membrane layers on the gold electrodes were determined from the two current components, Ifarad and Icap, using a simplified model for the electrical behaviour of the membrane with the membrane resistance R=Uo /Ifarad in parallel to the membrane capacitance C=Icap /(2πvUo).

Experiment [1] is described as follows: Current responses of the lipid bilayer without receptor (pure lipid layer). As to conditions: for Icap current response / Ifarad current response: pure lipid layer without receptor; for alterations of the electrical properties of the lipid layer without receptor: same concentration range as with receptor. The protocol:
For comparison, a corresponding lipid bilayer without the receptor protein was formed by completing the imperfect thiolipid monolayer on the gold electrode with the corresponding pure phospholipid/detergent solution.
The same experiment was performed using a lipid layer without receptor.
The same experiment was performed using the lipid bilayer without receptor.
A large (geometrical area about 1 cm^2) AgCl-coated Ag wire served as the counter/reference electrode and was fixed at a defined distance from the working electrode. […] The real and imaginary parts of the impedance were obtained from the currents in phase (faradaic component Ifarad) and 90° out of phase (capacitive component Icap) with the applied voltage, respectively. These currents were measured on a 1 k.OMEGA. resistor in series with the electrodes.
as §1

[2] abbreviates: phenylbiguanide 1.82 μM, Experiment 1.
Where [3] appears, read: phenylbiguanide 1.82 μM, Experiment 2.
The mark [4] stands for this setting: phenylbiguanide 3.33 μM, Experiment 1.
Setting [5] is: phenylbiguanide 3.33 μM, Experiment 2.
[6] abbreviates: phenylbiguanide 4.62 μM, Experiment 1.
Setting [7] is: phenylbiguanide 4.62 μM, Experiment 2.
Where [8] appears, read: phenylbiguanide 5.71 μM, Experiment 1.
Where [9] appears, read: phenylbiguanide 5.71 μM, Experiment 2.
Setting [10] is: phenylbiguanide 6.67 μM, Experiment 1.
Setting [11] is: phenylbiguanide 6.67 μM, Experiment 2.
The mark [12] stands for this setting: phenylbiguanide 7.50 μM, Experiment 1.
The mark [13] stands for this setting: phenylbiguanide 7.50 μM, Experiment 2.
[14] abbreviates: phenylbiguanide 8.89 μM, Experiment 1.
Setting [15] is: phenylbiguanide 8.89 μM, Experiment 2.
The mark [16] stands for this setting: phenylbiguanide 11.67 μM, Experiment 1.
[17] abbreviates: phenylbiguanide 11.67 μM, Experiment 2.
Setting [18] is: phenylbiguanide 12.86 μM, Experiment 1.
Where [19] appears, read: phenylbiguanide 12.86 μM, Experiment 2.
[20] abbreviates: phenylbiguanide 14.74 μM, Experiment 1.
Where [21] appears, read: phenylbiguanide 14.74 μM, Experiment 2.
The mark [22] stands for this setting: phenylbiguanide 10. μM, Experiment 1.
[23] abbreviates: phenylbiguanide 10. μM, Experiment 2.

Consider three molecules from patent US5756355A, “Lipid membrane sensors” (Ecole Polytechnique Federale de Lausanne, priority 1992, dated 1998).

With `N=C(N)NC(=N)Nc1ccccc1` [1-phenylbiguanide], the Icap current response at 5-HT3 receptor (setting [2]) is on record as 96.3 nA; at 5-HT3 receptor (setting [3]), 97.3 nA; at 5-HT3 receptor (setting [4]), 97.1 nA; on 5-HT3 receptor (setting [5]), 98.0 nA; at 5-HT3 receptor (setting [6]), 97.6 nA; at 5-HT3 receptor (setting [7]), 98.5 nA. Also, the Icap current response at 5-HT3 receptor (setting [8]) turned out to be 98 nA; on 5-HT3 receptor (setting [9]) it was 99.2 nA; at 5-HT3 receptor (setting [10]) it was 98.3 nA; at 5-HT3 receptor (setting [11]) it was 99.4 nA; on 5-HT3 receptor (setting [12]), 98.4 nA; at 5-HT3 receptor (setting [13]) it was 99.5 nA. The Icap current response on 5-HT3 receptor (setting [14]) stood at 98.5 nA; on 5-HT3 receptor (setting [15]), 99.6 nA; on 5-HT3 receptor (setting [16]), 98.6 nA; on 5-HT3 receptor (setting [17]), 99.6 nA; on 5-HT3 receptor (setting [18]), 98.6 nA; at 5-HT3 receptor (setting [19]), 99.6 nA. For the same molecule, the Icap current response at 5-HT3 receptor (setting [20]) is reported as 98.6 nA; at 5-HT3 receptor (setting [21]), 99.6 nA; at 5-HT3 receptor (setting [22]), 98.6 nA; at 5-HT3 receptor (setting [23]), 99.6 nA; in experiment [1] (1-phenylbiguanide 7.5 μM), 96.5 nA; in experiment [1] (1-phenylbiguanide 14.74 μM), 96.4 nA. For the same molecule, the Ifarad current response on 5-HT3 receptor (setting [2]) was found to be 23.6 nA; at 5-HT3 receptor (setting [3]), 22.7 nA; at 5-HT3 receptor (setting [4]), 26.1 nA; on 5-HT3 receptor (setting [5]), 25.0 nA; on 5-HT3 receptor (setting [6]), 27.7 nA; on 5-HT3 receptor (setting [7]) it was 26.6 nA. Further, the Ifarad current response on 5-HT3 receptor (setting [8]) worked out at 28.9 nA; at 5-HT3 receptor (setting [9]) it was 28.3 nA; on 5-HT3 receptor (setting [10]), 29.7 nA; on 5-HT3 receptor (setting [11]), 29.0 nA; at 5-HT3 receptor (setting [12]) it was 30.1 nA; at 5-HT3 receptor (setting [13]), 29.5 nA. For the same molecule, the Ifarad current response on 5-HT3 receptor (setting [14]) came to 30.6 nA; on 5-HT3 receptor (setting [15]) it was 29.8 nA; at 5-HT3 receptor (setting [16]) it was 31.1 nA; at 5-HT3 receptor (setting [17]), 30.3 nA; at 5-HT3 receptor (setting [18]), 31.2 nA; on 5-HT3 receptor (setting [19]), 30.4 nA. In addition, the Ifarad current response was found to be 31.2 nA at 5-HT3 receptor (setting [20]); 30.4 nA at 5-HT3 receptor (setting [21]); 30.8 nA on 5-HT3 receptor (setting [22]); 30.0 nA at 5-HT3 receptor (setting [23]); 20.9 nA in experiment [1] (1-phenylbiguanide 7.5 μM); 20.7 nA in experiment [1] (1-phenylbiguanide 14.74 μM).

With `NCCc1c[nH]c2ccc(O)cc12` [5-hydroxytryptamine], in experiment [1], the “alterations of the electrical properties of the lipid layer without receptor” value was “no alterations of the electrical properties of the pure lipid layer were observed”.

Regarding `CN1C2CCC1CC(OC(=O)c1c[nH]c3ccccc13)C2` (stereo not drawn) [ICS 205-930], the “5-HT concentration necessary for binding to the receptor, times higher than in the absence of the antagonist” value on 5-HT3 receptor (in the presence of 10 nM ICS 205-930) is listed as “about 40 times”. Further, the “alterations of the electrical properties of the lipid layer without receptor” value in experiment [1] was “No alterations of the electrical properties of the lipid bilayer”.
